Measurements taken from article PMC5618418, “Pharmacokinetics of Jaspine B and Enhancement of Intestinal Absorption of Jaspine B in the Presence of Bile Acid in Rats” (Marine Drugs, 2017).
Read-outs that look alike come from different tables or passages of the source.

Test: Pharmacokinetics after oral administration with or without taurocholate in control and bile-depleted rats
Format: in vivo
Settings: male, rat, plasma, 30 mg/kg; for bioavailability: oral 30 mg/kg vs IV 10 mg/kg, read-out: BA (oral bioavailability); for AUC(0-inf) / MRT / Tmax / half-life / AUC(0-t) / Cmax: oral 30 mg/kg; for AUC(0-t): read-out: AUC12h
Method: Male SD rats (aged 8–9 weeks, weighing 250–300 g) were obtained from Samtako Bio Korea, Inc. (Osan, Korea). The rats were acclimatized for 1 week in a temperature-controlled room (23 ± 2 °C) with a 12-h illumination cycle. Food and water were given ad libitum. All animal procedures were approved by the Animal Care and Use Committee of the Kyungpook National University (No. 2015-0064). The rats were fasted for at least 12 h before the oral administration of drugs.
The femoral artery, femoral vein, and bile duct were cannulated with polyethylene tubes (PE-50 and PE-10; Jungdo, Seoul, Korea) under light anesthesia with isoflurane.
For oral dosing, Jaspine B was dissolved in a vehicle containing DMSO: PEG400: saline (2:4:4, v/v/v) and was administered by oral gavages at a single dose of 30 mg/kg of Jaspine B concomitantly with or without 60 mg/kg TC (vehicle volume, 3 mL/kg) to the control and bile-depleted rats. Bile depletion was accomplished with 4 h drainage of bile through the bile cannula, which was cannulated to the bile duct using PE-10 tubing.
Blood samples (approximately 250 μL each) were collected from the femoral artery at 0, 0.25, 0.5, 1, 1.5, 2, 4, 8, and 12 h following the oral administration of Jaspine B. After centrifugation of blood samples at 13,200 rpm for 10 min, plasma samples (50 μL) were collected and stored at −80 °C until the analysis by liquid chromatography tandem-mass spectrometry (LC-MS/MS). Aliquots (50 μL) of plasma samples were added to 250 μL of acetonitrile containing 0.5 ng/mL of berberine (an internal standard). After vortexing for 10 min and centrifugation at 13,200 rpm for 5 min, an aliquot (10 μL) of the supernatant was injected directly into the LC-MS/MS system. The standard curve range was 5–2000 ng/mL and the concentrations of quality control (QC) samples were 60, 300, and 2000 ng/mL.
Pharmacokinetic parameters were determined using a non-compartmental analysis (WinNonlin® 2.0; Pharsight, Mountain View, CA, USA). Maximum plasma concentration (Cmax) and time to reach Cmax (Tmax) values were obtained from plasma concentration-time curves. The area under the plasma concentration–time curve from zero to infinity (AUC) was calculated using the trapezoidal-extrapolation method. For extrapolation, the area from the last data point to infinity was estimated by dividing the […].
However, in the case of bile-depleted rats, AUC∞ and T1/2 were not calculated because the elimination rate constant could not be obtained.

[1] = SD, bile depletion + TC 60 mg/kg

`CCCCCCCCCCCCCC[C@@H]1OC[C@H](N)[C@@H]1O` [Jaspine B] gave a bioavailability [1] of 23.5%, a bioavailability (SD, bile-depleted rats, from AUC12h) of 1.6% and a bioavailability (SD, control + TC 60 mg/kg) of 41.2%. The bioavailability (SD, control rats) was 6.2%, the AUC(0-inf) [1] was 1200 ± 254 ng·h/mL and the MRT [1] was 4.9 ± 0.5 h. The Tmax [1] was 1 ± 0.5 h, the half-life [1] was 7.2 ± 1.5 h and the AUC(0-t) [1] was 828 ± 180 ng·h/mL. For the same molecule, the MRT (SD, bile-depleted rats) was 6.1 ± 0.3 h, the Tmax (SD, bile-depleted rats) was 9.3 ± 2.3 h and the AUC(0-t) (SD, bile-depleted rats) was 80.3 ± 42.7 ng·h/mL. It also gave an AUC(0-inf) (SD, control + TC 60 mg/kg) of 2100 ± 419 ng·h/mL, a Cmax (SD, control + TC 60 mg/kg) of 174 ± 13 ng/mL and an MRT (SD, control + TC 60 mg/kg) of 5.5 ± 0.03 h. For the same molecule, the Tmax (SD, control + TC 60 mg/kg) was 3.3 ± 2.3 h, the half-life (SD, control + TC 60 mg/kg) was 6.4 ± 2.8 h and the AUC(0-t) (SD, control + TC 60 mg/kg) was 1406 ± 4.3 ng·h/mL. The AUC(0-inf) (SD, control rats) was 314 ± 76.1 ng·h/mL, the MRT (SD, control rats) was 4.9 ± 0.4 h and the Tmax (SD, control rats) was 2.5 ± 1.3 h. For the same molecule, the half-life (SD, control rats) was 5.5 ± 1.1 h, the AUC(0-t) (SD, control rats) was 241 ± 57.8 ng·h/mL and the Cmax (Sprague-Dawley, bile depletion + TC 60 mg/kg) was 163 ± 28.4 ng/mL. The Cmax (Sprague-Dawley, bile-depleted rats) was 8.5 ± 2.8 ng/mL and the Cmax (Sprague-Dawley, control rats) was 36.3 ± 11.3 ng/mL.
